Drawing on ChEMBL document CHEMBL1142892, “Synthesis and antitumor activity of indolylpyrimidines: marine natural product meridianin D analogues” (Bioorg Med Chem, 2007), this text covers Activity and IC50 for four molecules.

One may read the IC50 as the point on the concentration scale where inhibition reaches its midpoint.

≈ marks a conversion by molar mass, not a printed value. Calls of active or inactive are those of the source. The calls are words filed in the database; no cut-off is given here.

Assay type in all cases: functional, cell-based
For one test, the system named is U-251. Kind of test: Cytotoxicity against human U251 cells after 48 hrs by SRB assay. (In SRB staining, fixed cells bind dye roughly in proportion to their protein.)
The subject of another test is MCF7. The test can be described thus: Cytotoxicity against human MCF7 after 48 hrs cells by SRB assay.
In a further test the test system is HepG2. The test can be described thus: Cytotoxicity against human HEPG2 cells after 48 hrs by SRB assay.
The test system of the next test is HeLa. Kind of test: Cytotoxicity against human HeLa cells after 48 hrs by SRB assay.

Regarding `Nc1ncc(C(=O)O)c(-c2c[nH]c3ccccc23)n1`, the outcome in the test on U-251 and with HepG2 was inactive. Also, in the test with MCF7, inhibition was half-maximal at 0.75 mg/L (≈ 2.95 µM) (IC50).

For `N#Cc1cnc(N)nc1-c1c[nH]c2ccccc12`, the result in the test on U-251 and with HepG2 was inactive. Also, the values for the IC50 in the test with MCF7 and in the test on HeLa were 0.85 mg/L (≈ 3.61 µM) and 2.65 mg/L (≈ 11.3 µM), respectively.

Consider `Nc1nccc(-c2c[nH]c3ccccc23)n1`, for which the outcome in the test on U-251 and in the test with HepG2 was inactive.

As to `N/N=C(\N)c1cnc(N)nc1-c1c[nH]c2ccccc12`, the outcome in the test on U-251 and in the test with HepG2 was inactive. Also, inhibition with MCF7 was half-maximal at 0.25 mg/L (≈ 0.935 µM) (IC50).
